# Experimental data reported in US20140193802A1, “IDENTIFICATION OF AN ALTERED THERAPEUTIC SUSCEPTIBILITY TO ANTI-HCMV COMPOUNDS AND OF A RESISTANCE AGAINST ANTI-HCMV COMPOUNDS” (priority 2012, published 2014).
# Test system: RV-HG-UL56 mutants
# Assay: GFP-RA, drug susceptibility profile of the virus mutants
# Format: cell-based, human cytomegalovirus (HCMV)
# Conditions: fluorescence reduction assays; for BAY 38-4766 and BDCRB with the exception of the strain carrying UL56 R369M
# Protocol: HCMV Fluorescence Reduction Assay (GFP-RA)
# The susceptibilities of recombinant HCMV laboratory strains expressing GFP were determined by a GFP-based fluorescence reduction assay. For standard assays, 1.5×10^4 NHDF cells/well were cultured in black 96-well plates (Greiner Bio-One, Germany) and infected with either HCMV-GFP (MOI, 0.1) or RV-HG (MOI, 0.2 to 0.5). After virus adsorption, the virus inoculum was replaced with 200 μl fresh medium. Thereafter, 100 μl medium containing the test compounds was added to wells of horizontal row G, followed by serial 3-fold dilutions up to row A. All drug concentrations were tested at least in duplicate. Wells of the horizontal row H served as the virus control. Plates were incubated at 37° C. for 7 days. The medium was replaced by 200 μl PBS, and GFP units (GFPU) were determined by a charge-coupled-device-camera-based fluorescence detector (FluoBox; Bayer Technology Services GmbH, Leverkusen, Germany), which captures 96 images simultaneously. Drug effects were calculated as a percentage of reduction in GFPU in the presence of each drug concentration compared to the GFPU determined in the absence of drug. EC50 and EC90 values (drug concentrations producing 50% and 90% reduction in GFPU) were calculated using nonlinear regression curve fit with a variable slope. GraphPad Prism 3.02 or 4.0 software (GraphPad Software Inc., La Jolla, Calif.) was used for all analyses.
# The HCMV AD169-derived bacterial artificial chromosome (BAC) pHG served as the backbone for the construction of the mutant viruses. The markerless introduction of point mutations into pHG was done using a two-step recombination protocol according to the en passant method. Briefly, a recombination fragment containing the I-SceI-AphAI cassette from plasmid pEPKan-S was obtained by PCR using primers containing ˜60 bp of homology to the intended integration site in ORF UL56 of BAC pHG and ˜20 bp specific for pEPKan-S. This fragment was electroporated into Escherichia coli GS1783 that harbored the pHG BAC. […] After successful kanamycin selection, all non-HCMV sequences were removed by an intrabacterial ISceI digest and a subsequent second Red recombination, resulting in the scarless repair of the mutated UL56 gene in the background of BAC pHG. […] To reconstitute virus mutants, the recombinant BACs were transfected into permissive MRC5 cells. At least two independent virus clones per mutation were generated and evaluated.
row,SMILES,sensitivity of the RV-HG-UL56 mutants compared with the parental wild-type virus RV-HG
1,Nc1nc(O)c2ncn(COC(CO)CO)c2n1 [Ganciclovir],did not differ
2,"COc1cccc(N2CCN(C3=Nc4c(F)cccc4[C@H](CC(=O)O)N3c3cc(C(F)(F)F)ccc3OC)CC2)c1 [Letermovir, (S)-{8-fluoro-2-[4-(3-methoxyphenyl)-1-piperazinyl]-3-[2-methoxy-5-(trifluoromethyl)phenyl]-3,4-dihydro-4-quinazolinyl}acetic acid]",resistant
